The test system of one data set is Cushing's syndrome. Particulars: off-label, titrated to effect; cited from earlier work.
The next data set relates to C-reactive protein (CRP). The note with it: clinical study; cited from earlier work.
A short description of data set [1]: Pharmacokinetics of the enantiomers in humans after oral administration of ketoconazole. The format is in vivo. Particulars: following oral administration of ketoconazole (racemic). The text has this: Reduced hepatic exposure to the 2S,4R enantiomer may be of value in reducing the liver function abnormalities observed following administration of racemic ketoconazole.

The next data set relates to corticosterone. The note with it: rats; vs the other enantiomers or racemic ketoconazole; cited from earlier work.
The test system of the next data set is QTc interval. Kind of data set: QTc interval prolongation. Particulars: in vivo. The source says:
The potential risk of protracted, drug induced prolongation of the QTc interval on the ECG is the development of an arrhythmia called torsade de pointes. […] Subjects with CS may have greater than normal QTc intervals and treatment that reduces cortisol levels may result in reductions in QTc intervals.

For the next data set, the target named is 11-β-hydroxylase. Particulars: comparison in words; cited from earlier work.
A further data set concerns cholesterol. Particulars: vs the other enantiomer; cited from earlier work.
Another data set has as its target T1, 14-α-demethylase (Rattus norvegicus, UniProt Q64654).
T1 sequence (Q64654 1-503): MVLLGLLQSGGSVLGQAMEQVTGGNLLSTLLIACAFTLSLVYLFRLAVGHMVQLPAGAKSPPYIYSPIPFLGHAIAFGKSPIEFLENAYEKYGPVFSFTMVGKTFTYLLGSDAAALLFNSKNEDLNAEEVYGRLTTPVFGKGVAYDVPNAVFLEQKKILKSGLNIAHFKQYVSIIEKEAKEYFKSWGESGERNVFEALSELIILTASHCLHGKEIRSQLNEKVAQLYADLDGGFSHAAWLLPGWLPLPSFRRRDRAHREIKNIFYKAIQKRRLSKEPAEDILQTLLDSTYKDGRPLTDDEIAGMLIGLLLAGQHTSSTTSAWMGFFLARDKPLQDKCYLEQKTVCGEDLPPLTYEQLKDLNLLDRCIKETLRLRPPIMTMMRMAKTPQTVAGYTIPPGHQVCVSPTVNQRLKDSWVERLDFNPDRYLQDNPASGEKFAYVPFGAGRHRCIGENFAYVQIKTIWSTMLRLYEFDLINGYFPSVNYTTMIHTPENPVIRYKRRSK
The note with it: comparison in words; cited from earlier work.

A short description of data set [2]: Safety and tolerability in healthy volunteers and subjects with Type 2 Diabetes Mellitus. The format is in vivo, human. Particulars: 200 mg to 600 mg QD for up to 14 days and 150 mg to 450 mg for up to 4 months; healthy volunteers and T2DM subjects.

On to `CC(=O)N1CCN(c2ccc(OCC3COC(Cn4ccnc4)(c4ccc(Cl)cc4Cl)O3)cc2)CC1` (racemic) [racemic ketoconazole, reference compound], for which, in the data set on Cushing's syndrome, the “therapeutic success rate in CS” value is given as 50-70%. For the same compound, the “reduction in C-reactive protein (CRP) levels” value in the data set with C-reactive protein (CRP) is “no reduction”.

With `CC(=O)N1CCN(c2ccc(OC[C@@H]3CO[C@@](Cn4ccnc4)(c4ccc(Cl)cc4Cl)O3)cc2)CC1` (racemic) [2S,4R ketoconazole enantiomer], in [1], the “blood concentrations of the 2S,4R enantiomer exceed those of the 2R,4S enantiomer” value is “approximately 3 fold”. In the data set on C-reactive protein (CRP), the “reduction in C-reactive protein (CRP) levels” value is “dose response reduction”. Further, the “potency with respect to reducing corticosterone” value in the data set with corticosterone is on record as “more potent”. The “prolongation of QTc intervals” value in the data set with QTc interval was “capability to prolong QTc intervals in a dose (concentration) related manner”. On 11-β-hydroxylase, the “IC50 toward the key enzyme in cortisol synthesis (11-α-hydroxylase) compared with the other enantiomer” value is “significantly lower IC50” and the “IC50 toward the key enzyme in cortisol synthesis (11-β-hydroxylase) compared with the other enantiomer” value is recorded as “significantly lower IC50”. Further, in the data set on cholesterol, the reduction of cholesterol entry is on record as “appeared to reduce cholesterol more than the other enantiomer”. The “IC50 toward a key enzyme in cholesterol synthesis (14-α-demethylase) compared with the other enantiomer” value at 14-α-demethylase is “significantly lower IC50”. In data set [2], the safety and tolerability entry was “generally safe and well tolerated”.

These data come from patent US20190336498A1, “METHODS AND COMPOSITIONS FOR THE TREATMENT OF CUSHING'S SYNDROME USING 2S, 4R KETOCONAZOLE” (STRONGBRIDGE DUBLIN LIMITED, priority 2014, published 2019).
